Earlier results in US9227980B2, “Methods for the purification of cucurbituril” (CAMBRIDGE ENTERPRISE LIMITED, priority 2009, dated 2016).

| Structure (SMILES) | solubility in water (qualitative) |
| --- | --- |
| O=C1N2CN3C(=O)N4CN5C(=O)N6CN7C(=O)N8CN9C(=O)N%10CN1C1C2N2CN%11C(=O)N(CN%12C(=O)N(CN%13C(=O)N(CN%14C(=O)N(CN1C2=O)C%10C9%14)C8C7%13)C6C5%12)C4C3%11 (centres unmarked) [CB[5]] | soluble in water |
| O=C1N2CN3C(=O)N4CN5C(=O)N6CN7C(=O)N8CN9C(=O)N%10CN%11C(=O)N%12CN1C1C2N2CN%13C(=O)N(CN%14C(=O)N(CN%15C(=O)N(CN%16C(=O)N(CN%17C(=O)N(CN1C2=O)C%12C%11%17)C%10C9%16)C8C7%15)C6C5%14)C4C3%13 (centres unmarked) [CB[6]] | are not |
